# Key:
# Assay type in all cases: binding, human
# [1] = tested on: peptide-specific IgG in the serum; test: ELISA of peptide-specific IgG in sera of HCV patients and healthy donors (Example 1)
# Method in brief: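 Sera from 12 HCV patients and 10 healthy donors, diluted 1:100–1:400, tested by ELISA on plates coated with DSS-crosslinked HLA-A2/A24-motif HCV 1b peptides (20 µg/well); HIV peptide as negative control. Incubated 2 h at 37 °C; detection via rabbit anti-human IgG, HRP-polymer anti-rabbit, TMB. Cutoff = healthy-donor mean OD ± 3 SD.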
# peptide-specific IgG = test: Absorption and elution of peptide-specific IgG (Example 1); settings: serum of the patient of FIG. 1
# Protocol: One hundred microliters of a plasma or serum sample diluted with 0.05% Tween 20/Block Ace (registered trademark) was added to each well and allowed to be absorbed to the peptide (20 μg/well) coated on the well of the plate at 37° C. for 2 hours. After this procedure was repeated 3 times, the peptide-specific IgG level in the supernatant was measured by ELISA. The antibody bound to the peptide-coated plate in the initial adsorption step was eluted with 30 μl/well of 5 M NaCl/50 mM citrate buffer (pH 3.0) (neutralized with 0.05% Tween 20/Block Ace containing 1.0 M Tris-HCl (pH 7.5)), and the peptide-specific IgG level in the eluted fraction was measured by ELISA.
# peptide-reactive IgG = test: ELISA of anti-C-35 and anti-NS5A-2132 antibody in cohort study sera of 1995 and 2002; settings: serum dilution 100:1
# Protocol: Sera were obtained from 33 patients with a disease associated with HCV in the cohort study conducted between 1995 and 2002. The sera obtained from patients with chronic hepatitis (CH, n=68), liver cirrhosis (LC, n=43) and hepatic cell carcinoma (HCC, n=52) were also used in the analysis. These patients were diagnosed at the time of the first serum sampling by biochemical and histological findings, echography and computed tomography. An anti-HCV antibody was assayed using a chemiluminescence enzyme immunoassay (CLEIA) kit (Lumipulse II HCV, Fujirebio Inc., Tokyo, Japan) or the second generation or the third generation enzyme immunoassay test (SRL, Tokyo, Japan). HCV-RNA in the sera was detected using RT-PCR (SRL, Tokyo, Japan). The HCV genotype was determined by directly sequencing HCV in the sera of the patients by RT-PCR (SRL, Tokyo, Japan). The sera were also obtained from subjects who were not infected with HCV, which include 24 subjects with an autoimmune disease (6 patients with systematic lupus erythematosus, one with Behcet's disease and 17 with atopic dermatitis), 17 cases of hepatitis B virus (HBV) infection (positive for HBV surface antigen), 3 patients having human immunodeficiency virus (HIV) and 10 cases with human T cell leukemia virus type I (HTLV-1) infection.
# The level of peptide-specific IgG was measured by an enzyme-linked immunosorbent assay (ELISA). […]
sequence,measurement,setting,value
YLLPRRGPRL [No. 40],IgG antibody reactive to the peptide in the serum of single patients,"[1]; representative patients, FIGS. 1 and 2",detected
same,Healthy donors (n = 10) Positive %,"[1]; share of 10 healthy donors with serum IgG reactive to the peptide, ELISA, cut-off value 1.83",0%
same,HCV patients (n = 12) Positive %,"[1]; share of 12 HCV patients with serum IgG reactive to the peptide, ELISA, cut-off value 1.83",100%
same,absorption of the antibody reactive to C-35 peptide by the peptide,peptide-specific IgG,absorbed by C-35
same,elution of the antibody reactive to C-35 peptide,peptide-specific IgG,eluted from the C-35-adsorbed fraction
same,level of the anti-peptide antibody in 1995 compared with 2002,peptide-reactive IgG; 33 cohort patients,almost equal
same,level of the anti-peptide antibody by group in 2002,"peptide-reactive IgG; CH, LC, HCC, recovered individuals, ASC","high in any of CH, LC, and HCC patients, and it became very low or undetectable in the recovered individuals"
